Read-outs that look alike come from different tables or passages of the source.

The test has as its target T1, IKK2 (IKKβ) (Homo sapiens, UniProt O14920).
T1 construct: made in house; host or cells: baculovirus-infected insect cells (SF9)
T1 sequence (O14920 1-756): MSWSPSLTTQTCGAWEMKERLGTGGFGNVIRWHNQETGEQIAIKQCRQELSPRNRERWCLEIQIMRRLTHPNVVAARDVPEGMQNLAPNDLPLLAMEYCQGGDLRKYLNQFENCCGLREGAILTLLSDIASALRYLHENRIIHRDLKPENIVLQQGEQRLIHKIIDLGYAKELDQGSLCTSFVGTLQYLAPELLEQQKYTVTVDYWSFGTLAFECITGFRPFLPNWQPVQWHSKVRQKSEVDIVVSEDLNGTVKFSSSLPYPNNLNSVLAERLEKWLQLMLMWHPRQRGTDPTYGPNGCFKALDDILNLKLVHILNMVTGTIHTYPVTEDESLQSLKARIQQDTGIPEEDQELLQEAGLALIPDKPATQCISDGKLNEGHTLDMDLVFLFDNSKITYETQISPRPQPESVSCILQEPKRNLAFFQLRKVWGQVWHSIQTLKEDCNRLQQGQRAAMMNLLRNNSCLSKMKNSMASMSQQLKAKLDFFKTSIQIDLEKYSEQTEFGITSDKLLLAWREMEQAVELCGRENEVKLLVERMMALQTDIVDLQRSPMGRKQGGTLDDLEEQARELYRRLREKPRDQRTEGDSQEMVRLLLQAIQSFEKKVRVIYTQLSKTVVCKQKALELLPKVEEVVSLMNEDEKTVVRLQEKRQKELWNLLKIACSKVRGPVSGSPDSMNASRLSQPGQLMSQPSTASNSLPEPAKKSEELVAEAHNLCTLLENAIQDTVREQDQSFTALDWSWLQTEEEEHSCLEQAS
The test is described as follows: IKK2 (IKKβ) resin enzyme assay. The test is classed as biochemical. The text has this: cDNAs of human IKK1 and IKK2 were amplified by reverse transcriptase-polymerase chain reaction from human placental RNA (Clonetech). hIKK1 was subcloned into pFastBac HTa (Life Technologies) and expressed as N-terminal His6-tagged fusion protein. The hIKK2 cDNA was amplified using a reverse oligonucleotide primer which incorporated the peptide sequence for a FLAG-epitope tag at the C-terminus of the IKK2 coding region (DYKDDDDKD). The hIKK2:FLAG cDNA was subcloned into the baculovirus vector pFastBac. The rhIKK2 ([…]) mutant was constructed in the same vector used for wild type rhIKK2 using a QuikChange™ mutagenesis kit (Stratagene). Viral stocks of each construct were used to infect insect cells grown in 40L suspension culture. […] Cell lysates were stored at −80° C. until purification of the recombinant proteins was undertaken as described below.
Isolation of rhIKK2 Homodimer
A 10 liter culture of baculovirus-expressing IKK2 tagged with FLAG peptide was centrifuged and the cell pellet (MOI=0.1 and I=72 hrs) was re-suspended in buffer A. These cells were microfluidized, and centrifuged at 100,000×g for 45 min. Supernatant was passed over a G-25 column equilibrated with Buffer A. Protein peak was collected and incubated with anti-FLAG affinity resin on a rotator overnight in buffer B. The resin was washed in batch with 10-15 bed volumes of buffer C. Washed resin was poured into a column and rhIKK2 homodimer was eluted using 5 bed volumes of buffer B containing FLAG peptide. 5 mM DTT, 0.1% NP-40 and BSA (concentrated to 0.1% in final amount) was added to the eluted enzyme before concentrating in using an Amicon membrane with a molecular weight cut-off of 30 kDa. Enzyme was aliquoted and stored at −80° C.
IKKβ kinase activity was measured using a biotinylated IκBα peptide (Gly-Leu-Lys-Lys-Glu-Arg-Leu-Leu-Asp-Asp-Arg-His-Asp-Ser32-Gly-Leu-Asp-Ser36-Met-Lys-Asp-Glu-Glu) (American Peptide Co.). […] contained 5 μM biotinylated IκBα peptide, 0.1 μCi/reaction [γ-^33P] ATP (Amersham) (about 1×10^5 cpm), 1 μM ATP (Sigma), 1 mM DTT (Sigma), 2 mM MgCl2 (Sigma), 2 mM MnCl2 (Sigma), 10 mM NaF (Sigma), 25 mM Hepes (Sigma) buffer, pH 7.6 and 20 μl enzyme solution and […] inhibitor in a final volume of 50 μl. After incubation at 25° C. for 30 min, 150 μl resin (Dowex anion-exchange resin AG1X8 200-400 mesh) in 900 mM formate, pH 3.0 was added to each well to stop the reaction. Resin was allowed to settle for one hour and 50 ul of supernatant was removed to a Micolite-2 flat bottom plate (Dynex). 150 μl of scintillation fluid (Microscint 40) (Packard) was added to each well. Incorporation of [γ-^33P] ATP was measured using a Top-Count NXT (Packard).

The mark [1] stands for this setting: Table 5, read-out: IKK2 Resin IC50.
Setting [2] is: Table 4, read-out: IKK2 Resin IC50.
[3] abbreviates: Table 3, read-out: IKK2 Resin IC50.
[4] abbreviates: Table 2, read-out: IKK2 Resin Avg. IC50.

Turning to `CSc1ccc(-n2nc(C(N)=O)c3c2-c2cc(NC(=O)c4ccccc4Cl)ccc2OC3)cc1` [Example 57], the IC50 under setting [1] was at least 10000 nM.

With `NC(=O)c1nn(-c2cccc(F)c2)c2c1COc1ccc(NC(=O)c3cccnc3Cl)cc1-2` [Example 48, 8-{[(2-chloropyridin-3-yl)carbonyl]amino}-1-(3-fluorophenyl)-1,4-dihydrochromenol[4,3-c]pyrazole-3-carboxamide], the concentration for half-maximal inhibition (IC50) under setting [2] is at most 1000 nM.

`NC(=O)c1nn(-c2ccc3c(c2)OCO3)c2c1COc1ccc(NC(=O)c3ccncc3Cl)cc1-2` [Example 32, 1-(1,3-benzodioxol-5-yl)-8-[(3-chloroisonicotinoyl)amino]-1,4-dihydrochromeno[4,3-c]pyrazole-3-carboxamide]: the IC50 under setting [3] is at most 1000 nM.

Turning to `NC(=O)c1nn(-c2ccc3c(c2)OCO3)c2c1COc1ccc(NC(=O)c3ccccc3Cl)cc1-2` [Example 34, 1-(1,3-benzodioxol-5-yl)-8-[(2-chlorobenzoyl)amino]-1,4-dihydrochromeno[4,3-c]pyrazole-3-carboxamide], the 50% inhibitory concentration (IC50) under setting [3] is at most 1000 nM.

As for `CC(=O)N1Cc2c(C(N)=O)nn(-c3ccc4c(c3)OCO4)c2-c2cc(NC(=O)c3ccccc3Cl)ccc21` [Example 18, 5-acetyl-1-(1,3-benzodioxol-5-yl)-8-[(2-chlorobenzoyl)amino]-4,5-dihydro-1H-pyrazolo[4,3-c]quinoline-3-carboxamide], the IC50 under setting [4] was at most 1000 nM.

Consider `NC(=O)c1nn(-c2ccc3c(c2)OCO3)c2c1COc1ccc(NC(=O)c3cc4c(cc3Cl)OCO4)cc1-2` [Example 31, 1-(1,3-benzodioxol-5-yl)-8-{[(6-chloro-1,3-benzodioxol-5-yl)carbonyl]amino}-1,4-dihydrochromeno[4,3-c]pyrazole-3-carboxamide], for which the IC50 under setting [3] was at most 1000 nM.

Take `NC(=O)c1nn(-c2ccc3c(c2)OCO3)c2c1COc1ccc(NC(=O)c3cc(N)ccc3Cl)cc1-2` [Example 33, 8-[(5-amino-2-chlorobenzoyl)amino]-1-(1,3-benzodioxol-5-yl)-1,4-dihydrochromeno[4,3-c]pyrazole-3-carboxamide]: under setting [3], the IC50 was at most 1000 nM.

`CC(=O)N1Cc2c(C(N)=O)nn(-c3ccc(F)cc3)c2-c2cc(NS(C)(=O)=O)ccc21` [Example 25, 5-acetyl-1-(4-fluorophenyl)-8-[(methylsulfonyl)amino]-4,5-dihydro-1H-pyrazolo[4,3-c]quinoline-3-carboxamide]: under setting [4], the IC50 was below 1000 nM.

`CS(=O)(=O)c1ccc(-n2nc(C(N)=O)c3c2-c2cc(NC(=O)c4ccccc4Cl)ccc2OC3)cc1` [Example 54, 8-[(2-chlorobenzoyl)amino]-1-[4-(methylsulfonyl)phenyl]-1,4-dihydrochromeno[4,3-c]pyrazole-3-carboxamide]: the IC50 under setting [1] is at most 1000 nM.

In the case of `CC(=O)N1Cc2c(C(N)=O)nn(-c3ccc4c(c3)OCO4)c2-c2cc(N)ccc21` [Example 17, 5-acetyl-8-amino-1-(1,3-benzodioxol-5-yl)-4,5-dihydro-1H-pyrazolo[4,3-c]quinoline-3-carboxamide acetate], the half-maximal inhibitory concentration (IC50) under setting [4] is at most 1000 nM.

Consider `NC(=O)c1nn(-c2ccc(F)cc2)c2c1COc1ccc(NC(=O)c3ccncc3Cl)cc1-2` [Example 53, 8-[(3-chloroisonicotinoyl)amino]-1-(4-fluorophenyl)-1,4-dihydrochromeno[4,3-c]pyrazole-3-carboxamide], for which, under setting [2], the IC50 is below 1000 nM.

Turning to `C[S+]([O-])c1ccc(-n2nc(C(N)=O)c3c2-c2cc(NC(=O)c4ccccc4Cl)ccc2OC3)cc1` (stereo not shown) [Example 55, 8-[(2-chlorobenzoyl)amino]-1-[4-(methylsulfinyl)phenyl]-1,4-dihydrochromeno[4,3-c]pyrazole-3-carboxamide], the half-maximal inhibitory concentration (IC50) under setting [1] was at least 1000 nM.

With `NC(=O)c1nn(-c2ccc(F)cc2)c2c1COc1ccc(NC(=O)c3cccnc3Cl)cc1-2` [Example 47, 8-{[(2-chloropyridin-3-yl)carbonyl]amino}-1-(4-fluorophenyl)-1,4-dihydrochromenol[4,3-c]pyrazole-3-carboxamide], under setting [2], the IC50 is at most 1000 nM.

As for `CC(=O)N1Cc2c(C(N)=O)nn(-c3ccc4c(c3)OCO4)c2-c2cc(NC(=O)c3ccncc3Cl)ccc21` [Example 22, 5-acetyl-1-(1,3-benzodioxol-5-yl)-8-[(3-chloroisonicotinoyl)amino]-4,5-dihydro-1H-pyrazolo[4,3-c]quinoline-3-carboxamide], the concentration for half-maximal inhibition (IC50) under setting [4] is below 1000 nM.

As to `NC(=O)c1nn(-c2ccc3c(c2)OCO3)c2c1COc1ccc(NC(=O)c3cccc(Cl)c3Cl)cc1-2` [Example 45, 1-(1,3-benzodioxol-5-yl)-8-[(2,3-dichlorobenzoyl)amino]-1,4-dihydrochromenol[4,3-c]pyrazole-3-carboxamide], under setting [3], the IC50 was at least 100000 nM.

Turning to `CC(=O)N1Cc2c(C(N)=O)nn(-c3ccc4c(c3)OCO4)c2-c2cc(NS(C)(=O)=O)ccc21` [Example 23, 5-acetyl-1-(1,3-benzodioxol-5-yl)-8-[(methylsulfonyl)amino]-4,5-dihydro-1H-pyrazolo[4,3-c]quinoline-3-carboxamide], under setting [4], the IC50 is below 1000 nM.

The term IC50 denotes the concentration at which inhibition is half-maximal.

The values are drawn from US7211597B2, “Substituted pyrazolyl compounds for the treatment of inflammation” (priority 2001, dated 2007).
